These results are taken from patent US20060069110A1, “Substituted heterocyclic compounds and methods of use” (priority 2004, published 2006).

The structures appear in SMILES notation.

In the assay the test system is THP1 cells (LPS induced TNF release). The experiment in a line: Lipopolysaccharide-Activated THP1 Cell TNF Production Assay. Type of assay: cell-based. Conditions: Homo sapiens, THP-1; THP1 cells, bacterial LPS, secreted TNF-α after 3 h at 37° C.; read-out: IC50 values in the THP1 cell assay (LPS induced TNF release). In outline: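 THP1 cells at 1E6/mL were treated with 3-fold serial compound dilutions and LPS (1 μg/mL stock) for 3 h at 37 °C. Secreted TNF-α was quantified by electrochemiluminescent sandwich immunoassay. Percent of DMSO control versus concentration was fitted to a 4-parameter equation.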

By IC50 is commonly meant the point on the concentration scale where inhibition reaches its midpoint.

For `CN(c1cccc(C2=CCCCC2)n1)c1ccnc(NCCc2ccccc2)n1` [Example 148, N^4-(6-cyclohexenylpyridin-2-yl)-N^4-methyl-N^2-phenethylpyrimidine-2,4-diamine], the IC50 is at most 20 µM.

Turning to `CN(c1cccc(-c2ccco2)n1)c1ccnc(NCCc2ccccc2)n1` [Example 149, N^4-(6-(Furan-2-yl)pyridin-2-yl)-N^4-methyl-N^2-phenethylpyrimidine-2,4-diamine], the IC50 is at most 20 µM.

For the molecule `CN(c1cccc(-c2cccs2)n1)c1ccnc(NCCc2ccccc2)n1` [Example 150, N^4-Methyl-N^2-phenethyl-N^4-(6-(thiophen-2-yl)pyridin-2-yl)pyrimidine-2,4-diamine], the IC50 was at most 20 µM.

Consider `CN(c1cccc(Cc2ccccc2)n1)c1ccnc(NCCc2ccccc2)n1` [Example 151, N^4-(6-Benzylpyridin-2-yl)-N^4-methyl-N^2-phenethylpyrimidine-2,4-diamine], for which the IC50 was at most 20 µM.

Consider `CN(c1cccc(-c2ccccc2)n1)c1ccnc(N[C@H]2CC[C@H](N)CC2)n1` [Example 153, N^2-((1s,4s)-4-aminocyclohexyl)-N^4-methyl-N^4-(6-phenylpyridin-2-yl)pyrimidine-2,4-diamine], for which the IC50 is at most 20 µM.

Consider `CC(Cc1cccc(CO)c1)Nc1nccc(N(C)c2cccc(-c3cccc(F)c3)n2)n1` (centres unmarked) [Example 156, (3-(2-(4-((6-(3-Fluorophenyl)pyridin-2-yl)(methyl)amino)pyrimidin-2-ylamino)propyl)phenyl)methanol], for which the IC50 was at most 20 µM.

For `CC(Cc1cccc(CN)c1)Nc1nccc(N(C)c2cccc(-c3cccc(F)c3)n2)n1` (centres unmarked) [Example 157, N^2-(1-(3-(Aminomethyl)phenyl)propan-2-yl)-N^4-(6-(3-fluorophenyl)pyridin-2-yl)-N^4-methylpyrimidine-2,4-diamine], the IC50 was at most 20 µM.

Turning to `Cn1c(Nc2ccnc(NCCc3ccccc3Cl)n2)cc(-c2ccccc2)cc1=O` [Example 160, 6-(2-(2-Chlorophenethylamino)pyrimidin-4-ylamino)-1-methyl-4-phenylpyridin-2(1H)-one], the IC50 was at most 20 µM.

On to `CN(c1ccnc(NC(C)(C)CNC(=O)OC(C)(C)C)n1)c1cc(-c2ccccc2)cc(=O)n1C` [Example 161, tert-Butyl 2-methyl-2-(4-(methyl(1-methyl-6-oxo-4-phenyl-1,6-dihydropyridin-2-yl)amino)pyrimidin-2-ylamino)propylcarbamate], for which the IC50 is at most 20 µM.

On to `CN(c1ccnc(NC2CCN(C(=O)OC(C)(C)C)CC2)n1)c1cc(-c2ccccc2)cc(=O)n1C` [Example 162, tert-Butyl 4-(4-(methyl(1-2-yl)amino)pyrimidin-2-ylamino)piperidine-1-carboxylate], for which the IC50 was at most 20 µM.

Turning to `CC(Cc1cccc(CO)c1)Nc1nccc(N(C)c2cc(Cl)nc(-c3ccccc3)c2)n1` (centres unmarked) [Example 163, (3-(2-(4-((2-Chloro-6-phenylpyridin-4-yl)(methyl)amino)pyrimidin-2-ylamino)-propyl)phenyl)methanol], the IC50 is at most 20 µM.

Regarding `CC(Cc1cccc(CN)c1)Nc1nccc(N(C)c2cc(Cl)nc(-c3ccccc3)c2)n1` (centres unmarked) [Example 164, N^2-(1-(3-(Aminomethyl)phenyl)propan-2-yl)-N^4-(2-chloro-6-phenylpyridin-4-yl)-N4-methylpyrimidine-2,4-diamine], the IC50 is at most 20 µM.

Take `CN(c1c[nH]c(=O)c(-c2ccccc2)c1)c1ccnc(NCCc2ccccc2)n1` [Example 166, 5-(Methyl(2-(phenethylamino)pyrimidin-4-yl)amino)-3-phenylpyridin-2(1H)-one]: the IC50 is at most 20 µM.

`CC(=O)N1CCC(Nc2nccc(N(C)c3c[nH]c(=O)c(-c4ccccc4)c3)n2)CC1` [Example 167, 5-((2-(1-Acetylpiperidin-4-ylamino)pyrimidin-4-yl)(methyl)amino)-3-phenyl-pyridin-2(1H)-one]: the IC50 was at most 20 µM.
